From publication PMC6095874, “Discovery of cationic nonribosomal peptides as Gram-negative antibiotics through global genome mining” (Nature Communications, 2018)
In brackets after ≈: the same amount, converted by molar mass. Where two headings read alike, the source gives them in different places. Where a SMILES comes first, the peptide text is derived from it. Bridges are numbered along the chain shown (N, C = ends). [ ]: non-standard residue; d: D form. The star is where a group is joined. ξ: configuration not given here. Hexanoyl(4ξ-Me) = CCC(C)CCC(=O)*; dOrn = NCCC[C@@H](N)C(=O)O; Orn = NCCC[C@H](N)C(=O)O

How the values were obtained:
Candida albicans = format: cell-based; details: 24 h
E. coli = assay: Lysis assay; format: cell-based, Escherichia coli; details: ten times the MIC, culture OD600 = 1.0, 24 h
Description: An overnight culture of E. coli TOP10 cells was diluted 1:10,000 in MHB and incubated at 37 °C with agitation at 180 rpm for 2 h (early exponential). The bacteria were then challenged with brevicidine (20 μg mL^−1), laterocidine (20 μg mL^−1), or polymyxin B (10 μg mL^−1) at ten times the MIC at room temperature without shaking. An untreated sample of cells was used as a negative control. At intervals, 10 μL aliquots were removed, centrifuged at 10,000 × g for 1 min and resuspended in 1.0 mL of sterile PBS. Tenfold serially diluted suspensions were plated on MHB agar plates and incubated at 37 °C overnight. Colonies were counted and the number of c.f.u. per mL was calculated. For analysis of lysis, 300 μL of culture (OD600 = 1.0) were treated with antibiotics at ten times the MIC for 24 h. Experiments were performed in triplicate.

[1] = Peptide binding to LPS by isothermal titration calorimetry; set-up: species or system Escherichia coli; details: 37 °C
Description: Microcalorimetric experiments of peptide binding to LPS were performed on an MCS isothermal titration calorimeter (Microcal, Northampton, MA) at 37 °C. LPS was prepared as a 50 µM aqueous suspension in 20 mM HEPES buffer (pH 7.0) by suspension, sonication, and temperature cycling between 5 and 70 °C. This suspension was stored at 4 °C overnight prior to use. Aliquots of 100 µM peptide solutions (brevicidine and polymyxin B) were prepared in the same buffer and all solutions were degassed prior to use by stirring under vacuum for 5 min at 37 °C. After thermal equilibration, 5 µL aliquots of the peptide solution were added every 3 min into the lipid-containing cell at 37 °C with constant stirring. The change in heat during the titration steps was registered in real time and raw data were processed using the Origin® 7 software provided with the instrument. In control experiments, the corresponding peptide solution (or LPS solution) was injected into the buffer without LPS (or without peptide).

Saccharomyces cerevisiae = format: cell-based; details: 24 h
Human HeLa cells = details: concentrations up to 128 μg mL^−1, 48 h, 37 °C, MTT, absorbance 570 nm
Description: Human HeLa cells were used in the assay. Ninety μL of 1 × 10^5 mL^−1 cells were placed into the wells of 96-microwell plates. After 12 h, 10 μL of a medium containing test compounds at various concentrations were added to the cells which were then incubated at 37 °C for 48 h. Afterward, the supernatant was removed and 20 μL of MTT (3-(4,5-Dimethylthiazol-2-yl)-2,5-Diphenyltetrazolium Bromide) (2.5 mg mL^−1) in PBS were added to each well. After incubation at 37 °C for 3 h, 80 μL of dimethyl sulfoxide (DMSO) were added to each well and incubated for an additional 15 min. The absorbance was then measured at 570 nm with a Thermo Scientific Multiskan FC multiplate photometer.

E. cloacae NRRL-B-425 = format: cell-based, Enterobacter cloacae; details: NRRL-B-425, 24 h
Description: (§1) MIC was determined by broth microdilution according to CLSI guidelines. The test medium for most species was Mueller–Hinton broth (MHB). Bacteria were grown overnight to early stationary phase and adjusted in MHB to 5.0 × 10^5 c.f.u. mL^−1 in the wells of 96-well microtiter plates (Falcon® 96-Well Flat-Bottom Microplate, Tissue Culture-Treated), mixed with varying concentrations of test compounds and incubated at 37 °C for 24 h. Cell growth was evaluated by measuring the optical density at 595 nm (Thermo Scientific Multiskan FC multiplate photometer) (Waltham, MA, USA), and the MIC was defined as the lowest compound concentration at which no bacterial growth was observed. MHBs containing 10% fetal bovine serum (Gibco), 21 mM MgCl, or 1.0 mg mL^−1 LPS (lipopolysaccharides from E. coli O55:B5, Sigma-Aldrich) was used to test their inhibitory effects.

[2] = system: Escherichia coli ATCC 25922; assay: microbe, parasite or virus in culture; format: cell-based; details: Supplementary Table 1; Ec = Escherichia coli ATCC 25922
Description: as §1

[3] = system: Pseudomonas aeruginosa PAO1; format: cell-based; details: Supplementary Table 1; Pa = Pseudomonas aeruginosa PAO1
Description: as §1

Gram-negative bacteria = format: cell-based
Description: as §1

[4] = system: Staphylococcus aureus (MRSA); format: cell-based; details: 24 h
Description: as §1

[5] = system: Colistin-resistant E. coli (E. coli ATCC 25922 carrying mcr-1); assay: MIC by broth microdilution; format: cell-based, Escherichia coli; details: MHB, 37 °C, 24 h
Description: as §1

E. coli ATCC 25922 [6] = assay: Resistance acquisition during serial passaging; format: cell-based, Escherichia coli; details: subinhibitory concentrations, 30-day period, MHB, 37 °C, quadruplicate
Description: (§2) E. coli ATCC 25922 was inoculated into MHB overnight at 37 °C with continuous shaking. Cells were diluted 10,000 times in MHB to about 1 × 10^6 c.f.u. mL^−1. Ten µL aliquots were drawn to a 96-well plate containing 90 µL of serially diluted brevicidine, laterocidine, and ciprofloxacin, at final concentrations of 0.5×, 1×, 1.5×, 2×, and 4× MIC. […] Plates with bacteria were incubated at 37 °C without shaking. […] This process was repeated for 30 days, and the final MIC was confirmed by the same antibacterial assay as the one described above. The experiment was performed in quadruplicate, and on each day, the sample that developed the highest resistance was measured to plot the curve. For single-step resistance, E. coli ATCC 25922 cells at 10^8 c.f.u. were plated onto Mueller–Hinton agar containing 4× MIC of brevicidine.

E. coli ATCC 25922 [7] = details: 10^8 c.f.u. plated on Mueller–Hinton agar at four times the MIC, 48 h, 37 °C
Description: as §2

[8] = system: Klebsiella pneumoniae NRRL-B-408; assay: MIC by broth microdilution; format: cell-based; details: Supplementary Table 1; Kp = Klebsiella pneumoniae NRRL-B-408
Description: as §1

[9] = system: Enterobacter cloacae NRRL-B-413; assay: MIC by broth microdilution; format: cell-based; details: Supplementary Table 1; En = Enterobacter cloacae NRRL-B-413
Description: as §1

Acinetobacter baumannii = assay: MIC by broth microdilution; format: cell-based; details: Supplementary Table 1
Description: as §1

Bacillus subtilis 168 = assay: MIC by broth microdilution; format: cell-based; details: Supplementary Table 1; Bs = B. subtilis 168
Description: as §1

Compound: CCC(C)CCC(=O)N[C@H](CC(N)=O)C(=O)N[C@H](Cc1ccc(O)cc1)C(=O)N[C@H](Cc1c[nH]c2ccccc12)C(=O)N[C@H](CCCN)C(=O)N[C@@H](CCCN)C(=O)NCC(=O)N[C@H](CCCN)C(=O)N[C@@H](Cc1c[nH]c2ccccc12)C(=O)N[C@@H]1C(=O)N[C@@H]([C@@H](C)CC)C(=O)NCC(=O)N[C@@H](CO)C(=O)O[C@@H]1C (some centres unmarked) [Compound 1, brevicidine] ({Hexanoyl(4ξ-Me)}-[dN][dY][dW][dOrn][Orn]G[dOrn]WTIGS; ester 9-C)
- MIC (Candida albicans): >64 µg/mL
- lysis of E. coli cells (E. coli): completely lysed
- binding to LPS (ITC) ([1]; 20 mM HEPES pH 7.0): strong binding to LPS
- Kd ([1]; ITC, 50 µM LPS in 20 mM HEPES pH 7.0, 100 µM peptide, read-out: dissociation constant Kd for LPS): 6.5 µM
- MIC (Saccharomyces cerevisiae): >64 µg/mL
- toxicity against the human cell line HeLa (Human HeLa cells): nor showed significant toxicity
- MIC (E. cloacae NRRL-B-425): 2 µg/mL (≈ 1.32 µM)
- MIC, Ec [2]: 2 µg/mL (≈ 1.32 µM)
- MIC, Pa [3]: 1 µg/mL (≈ 0.658 µM)
- MIC values against Gram-negative bacteria (Gram-negative bacteria; 24 h): 0.66 to 10.5 µM
- MIC values against Gram-negative bacteria (Gram-negative bacteria; range over Gram-negative strains incl. P. aeruginosa and colistin-resistant E. coli): 1 to 16 µg/mL
- MIC [4]: >64 µg/mL
- MIC [5]: 2 µg/mL (≈ 1.32 µM)
- resistance development during serial passaging (E. coli ATCC 25922 [6]): did not develop resistance
- single-step resistance (E. coli ATCC 25922 [7]): did not develop resistance
- single-step resistance (E. coli ATCC 25922 [7]; listed as brevicidine): no resistant colonies were detected
- MIC, Kp [8]: 2 µg/mL (≈ 1.32 µM)
- MIC, En [9]: 2 µg/mL (≈ 1.32 µM)
- MIC, Ab (Acinetobacter baumannii): 16 µg/mL (≈ 10.5 µM)
- MIC, Bs (Bacillus subtilis 168): 32 µg/mL (≈ 21.1 µM)
